From paper PMC3871595, “Structure Based Identification and Characterization of Flavonoids That Disrupt Human Papillomavirus-16 E6 Function” (PLoS ONE, 2013)
Read-outs that look alike come from different tables or passages of the source.

What was measured:
Caski cells = assay: cell viability (MTS, Celltiter 96 AQueous) Caski; type: cell-based, human; conditions: 48 to 96 hours, relative to DMSO
caspases 3 and 7 = assay: Caspase-Glo 3/7 apoptosis assay; type: cell-based, human; conditions: 4 – 48 hours
Experimental: (§1) This was specific to Caski cells and was not observed in RPE-1, HeLa cells, or the HPV negative control cell lines C33a and HaCat (Figures S2A,B ). […] As observed in the viability assay, this occurred in both the HPV positive and negative cell lines. […] These cell lines were also assayed for apoptosis.
(§2) For cell viability, 12,000 cells per cm^2 were plated in 96-well dishes 24 hours prior to drug addition. Fresh media and compound were added. Plates were read after 72-96 hours. Relative cell viability was assayed as directed in the Celltiter 96 AQueous one solution assay (Promega). For caspase activity, plates were assayed after 4, 8, 12, 24, or 48 hours as described for the Caspase-Glo 3/7 assay (Promega).

[1] = tested on: RPE-1, HeLa, C33a and HaCat cells; assay: SA-beta-gal senescence assay in other cell lines; type: cell-based, human; conditions: 72 hours
Experimental: as §1
12,000 cells per cm^2 were plated in 24-well dishes; after 24 hours, fresh media and compound were added. SA-beta gal staining was performed as described. Images were collected using bright field microscopy. At least four fields (~100 cells per field) were read for each treatment, and experiments were repeated 3 times. The percent SA-beta-gal positive cells was calculated for each data point.

[2] = biological target: T1, interaction between HPV-16 E6 and E6AP (Human papillomavirus type 16, UniProt P03126); assay: biochemical; type: binding; conditions: for Emax: read-out: Maximal Inhibition
T1 construct: made in house; host or cells: E. coli BL21
Experimental: To characterize potential E6 inhibitors, a robust in vitro assay was developed to measure the interaction between HPV-16 E6 and E6AP. […] The core 70 amino acids of the E6 binding region of E6AP (residues 371-440) was fused to bacterial alkaline phosphatase (BAP) in the MY101 vector [40]. […] Binding efficiency was determined from the intensity of BAP activated chemiluminescence remaining in each well.
Kinetic analysis was performed to characterize the protein-protein interaction inherent in this assay.
The collection of 72 available structural-lead compounds was tested in the filter-plate based in vitro E6-E6AP binding assay. […] Compounds that disrupted the Flag-BAP interaction with the same potency as the HPV-16 E6 and E6AP interaction were classified as non-specific and eliminated from further analysis. […]
Pre-Block - 96-well filter plates were prepared (0.2 µm BioTrace NT, Pall). 100µL of blocking buffer (100 mM Tris pH 8.0, 100 mM NaCl, 0.1% milk) was added per well. Plates were blocked for 1 hr at RT on an orbital shaker. Buffer was removed by vacuum filtration using a vacuum manifold. GST-E6 Bead addition – GST-E6 beads were prepared at 5µg/mL in GST-E6 bead buffer (100 mM Tris pH 8.0, 100 mM NaCl, 0.1% milk, 2.5 mM DTT). 100µL of GST-E6 bead mix was added per well and incubated for 1 hr at 4°C. Buffer was removed by vacuum filtration. […] 48 µL of each reagent was added per well. For drug assay, 2µL of compound was added to each well and mixed thoroughly. […] Plates were incubated for 1-3 hours at RT on an orbital shaker. Buffer was removed by vacuum filtration. Plates were washed on the vacuum manifold, first with 200 µL buffer (100 mM Tris pH 8.0, 100 mM NaCl, 1 mM DTT), and twice more with 100µL lysis buffer without DTT. Plates were cleared and dried with on the vacuum manifold. Assay – Immunostar assay reagent was prepared and equilibrated to RT prior to addition. 60 µL of Immunostar-AP assay reagent was added, the BAP activity was allowed to develop for 10 minutes and the plates were read on a Wallace Luminometer. BAP activity was measured as relative light units (RLU) on a luminometer using the Immunostar-AP substrate (BioRad).

[3] = tested on: HPV-16 E6 mediated p53 degradation; assay: in vitro HPV-16 E6 mediated p53 degradation assay; type: biochemical
Experimental: In vitro expressed p53 was incubated in rabbit reticulocyte lysate in the presence or absence of in vitro expressed HPV16 E6. p53 levels were reduced in reaction containing E6 proteins (Figure 8 ).
Control reactions (no DNA, p53 alone) were incubated with 1 µL wheat germ extract and 2% DMSO in reaction buffer. In vitro translated p53 and rabbit reticulocyte lysate (RRL, Promega) were added to all reactions except the no DNA control reaction to which wheat germ extract was added instead of p53. Reactions were incubated for 3 hrs at 30°C and stopped by addition of 6X reducing SDS sample buffer and heating at 95°C for 5 min. Each reaction was loaded onto a 10% SDS-PAGE gel and transferred onto PVDF (0.45 µm). p53 and 16E6 were visualized using monoclonal p53 (Pab1801, 1:1000), monoclonal 16E6 (813, Arbor Vita Corporation, 1:4000) antibody and anti-mouse HRP-labeled secondary antibody (1:2000, Sigma-Aldrich).

[4] = tested on: HPV-18 positive HeLa cells; assay: cell viability (MTS, Celltiter 96 AQueous) HeLa; type: cell-based, human; conditions: 48 to 96 hours, relative to DMSO
Experimental: HPV-18 positive HeLa cells and two additional control cell lines, C33a, a cell line derived from an HPV-negative human cervical cancer isolate, and HaCat, a spontaneously immortalized human keratinocyte cell line, were used to assess compounds for their impact on cell growth and viability. All cells were incubated for 48 to 96 hours with increasing doses of compound. Cell viability was measured by MTS based assay and % viability quantified relative to cells treated with DMSO. […] This is in agreement with the lack of specificity for HPV-dependent cells observed in the p53 western results.
as §2

[5] = full 7-point dose response, 0.5 µM to 333 µM, quadruplicate
[6] = 100 µM compound pre-incubated with E6

T1 sequence (P03126 whole entry): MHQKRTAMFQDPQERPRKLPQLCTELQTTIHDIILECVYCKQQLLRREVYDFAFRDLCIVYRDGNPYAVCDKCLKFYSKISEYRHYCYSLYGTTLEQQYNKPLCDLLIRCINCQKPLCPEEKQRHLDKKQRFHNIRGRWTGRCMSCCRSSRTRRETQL

O=c1cc(-c2ccc(O)c(O)c2)oc2cc(O)cc(O)c12 [luteolin, reference compound]
cell growth and viability (Caski cells): potent inhibitor of Caski, E6/E7 HFKs, and HeLa growth
caspase 3 and 7 activity (caspases 3 and 7): did not observe increased caspase activity
SA-β-gal staining [1]: no significant increase in β-gal staining
IC50 [2]: 4.3 µM
inhibition of the interaction between E6 and E6AP ([2]; full 7-point binding assay, maximum): up to 100%
IC50 [2, 5]: low micromolar IC50 values
Emax [2]: 99%
effect on E6 mediated p53 degradation [3, 6]: decrease in p53 was not observed
cell growth and viability [4]: potent inhibitor of Caski, E6/E7 HFKs, and HeLa growth

COc1cccc(-c2cc(=O)c3cc(-c4nnn[nH]4)ccc3o2)c1 [CAF-24]
cell growth and viability (Caski cells): selectively inhibited growth
caspase 3 and 7 activity (caspases 3 and 7): did not observe increased caspase activity
SA-β-gal staining [1]: not observed
IC50 [2]: 2.8 µM
IC50 [2, 5]: low micromolar IC50 values
Emax [2]: 95%
effect on E6 mediated p53 degradation ([3]; 10 µM compound pre-incubated with E6): stabilized p53
effect on E6 mediated p53 degradation [3, 6]: stabilized p53
cell growth and viability [4]: selectively inhibited growth
